From BindingDB's records for doi:10.1021/acs.jmedchem.9b01283 (Pharmaxis, 2019)

Target: Diamine oxidase AOC1 (Homo sapiens)
Test: Inhibition of recombinant human DAO using putrescine as substrate preincubated with enzyme for 30 mins followed by substrate addition and measured every 2.5 mins for 30 mins by Amplex-Red oxidation assay

IC50 | Compound
3.98 µM | Cc1c(-c2cccc(S(=O)(=O)N(C)C)c2)c2ccccc2n1CC(F)=CCN
> 10 µM | Cc1c(-c2cccc(S(=O)(=O)N(C)C)c2)c2cc(C(=O)O)ccc2n1CC(F)=CCN
